Measurements published in publication PMC8811960, “A Novel 2-Carbon-Linked Dimeric Artemisinin With Potent Antileukemic Activity and Favorable Pharmacology” (Frontiers in Oncology, 2022).
Like-named read-outs stand apart in the source and are kept apart here.

Columns and labels:
MOLM14 AML xenografts = assay: luc-labeled MOLM14 AML cell line xenograft; format: in vivo, NRG mice; details: 15 mg/kg/d PO, 5 days on, 9 days off, 5 cycles
Description: Immunodeficient NOD-Rag1^nullIL2rg^null (NRG) mice were purchased from Jackson Laboratory (Bar Harbor, ME), bred and housed at the University of Maryland Baltimore. Similar to our previous publication ([20]). mice were transplanted IV with luc-labeled human AML cell lines or cryopreserved AML patient cells on day -10, and baseline total body luminescence was quantified on day 0 by Xenogen bioluminescence imaging (Xenogen IVIS Spectrum; PerkinElmer, Waltham, MA). Mice were allocated to treatment groups so that each group had similar average day 0 luminescence, then groups were administered drugs per oral (PO; gavage). Luminescence of each mouse was assessed over time and compared with that mouse’s day 0 luminescence (fold-change AML burden). Clinical behavior, appearance, weight, and survival were also monitored.
Using our previously determined 5-day MTD SAV drug schedule (i.e. 5-day treatment cycles consisting of 15 mg/kg/d ART631 combined with 150 mg/kg/d VEN and 30 mg/kg/d SOR, followed by 9 days off drug; schematic in Figure 7A ), we assessed treatment of established human luc-labeled MV4;11 ( Figures 7B–D ) and MOLM14 AML ( Figures 8A–C ) cell line xenografts with VEN plus SOR plus ART631 in NRG mice ( Figures 7B , 8A ). […]

[1] = Plasma pharmacokinetics after oral dosing in NRG mice; format: in vivo; details: mouse; for Vd/F: read-out: Vz/F
Experimental: Mice were dosed orally with ART631 at empirically determined maximally tolerated doses (MTDs) of 75 mg/kg ART631 as a single dose alone or 15 mg/kg as a multiple dose regimen (once daily x5), either alone or in combination with SOR (30 mg/kg/d) and VEN (150 mg/kg/d), for side-by-side comparison to the ART838, SOR and VEN combination evaluated previously ([20]). ART631, SOR, and VEN were mixed in vehicle and given as a single administration. Mice (n = 3/time point) were euthanized at 0.5, 1, 1.5, 2, 3, 4, 6, 8 and 12 h after dosing. ART631 was quantified in plasma as described below. Pharmacokinetic parameters were calculated from mean concentration-time data using non-compartmental methods in Phoenix WinNonlin version 8.3 (Certara, Princeton, NJ). The maximum plasma concentration (Cmax) and time to Cmax (Tmax) were the observed values. The AUClast was calculated using the log-linear trapezoidal method. AUC was extrapolated to infinity (AUCINF) by dividing the last quantifiable concentration by the terminal disposition rate constant (λz). The λz was determined from at least 3 points on the slope of the terminal phase of the concentration-time profile. The terminal half-life (T1/2) was determined by dividing 0.693 by λz. Apparent clearance (Cl/F) was calculated by dividing the dose administered by AUCINF. Apparent volume of distribution (V/F) was calculated by dividing Cl/F by λz. If the percent AUC extrapolated was >20% or the r^2 of λz was <0.85, the AUCINF, Cl/F, T1/2 and V/F were not reported.
The Method of Bailer was used to estimate the variance of AUC given the calculated variance of the mean concentration at each time point ([23]). A pairwise comparison utilizing Z test was used to determine whether there was a significant difference between ART631 exposures as expressed by AUClast ([24]). In all cases, p < 0.05 was considered statistically significant.
ART631 was extracted from 25 µL plasma or microsomal solutions with 100 µL acetonitrile containing artemisinin (i.e. the natural product) as internal standard. […] Mobile phase A was ammonium acetate (2mM) containing 0.1% formic acid, and mobile phase B was acetonitrile containing 0.1% formic acid. The gradient started with mobile phase B and was held at 40% for 0.5 minutes with a flow rate of 0.4 mL/min, then increased to 100% over 1.5 minutes and held for 2.0 minutes, and finally returned back to 40% mobile phase B and allowed to equilibrate for 2.0 minutes. An AB Sciex 5500 triple quadrupole mass spectrometer operated in positive electrospray ionization mode was used for the detection of ART631. For stability studies, the ratio of ART631 to the internal standard, artemisinin, was assessed. Calibration curves for ART631 were computed using the ratio of the peak area to that of the internal standard by using a quadratic equation with a 1/x^2 weighting function over the range of 8-1585 nM with dilutions of up to 1:10 (v/v).

U937 = assay: alamarBlue growth inhibition, U937; format: cell-based; details: Homo sapiens, U-937, U937, 48h, mean of 2 independent assays ± SD
Experimental: Cytotoxicity was assessed using alamarBlue assays (Life Technologies, Grand Island, NY) following manufacturer’s guidelines. Cell death was verified by Annexin V/7-aminoactinomycin D (7AAD) staining (BioLegend, San Diego, CA) per manufacturer’s guidelines.

[2] = 15 mg/kg/day, NRG mice plasma, 15 mg/kg/d PO qd x 5 alone, after 5th dose
[3] = NRG mice plasma, 15 mg/kg/d PO qd x 5 in SAV (SOR 30 mg/kg/d, VEN 150 mg/kg/d), after 5th dose
[4] = NRG mice plasma, 75 mg/kg PO x 1

With `C=CCO/N=C(/C[C@H]1O[C@@H]2O[C@@]3(C)CC[C@H]4[C@H](C)CC[C@@H]([C@H]1C)[C@@]24OO3)[C@H]1O[C@@H]2O[C@@]3(C)CC[C@H]4[C@H](C)CC[C@@H]([C@H]1C)[C@@]24OO3` [ART631] the “antileukemic activity of monotherapy” value (MOLM14 AML xenografts) was “no activity”, the half-life ([1]; NRG, plasma, oral, ART631 alone, single and multiple dose regimens, read-out: half-life) was 1.1 to 1.7 h and the AUC(0-t) [1, 2] was 2.74 µM·h. The CL/F [1, 2] was 145 mL/min/kg, the Cmax [1, 2] was 935 nM and the Tmax [1, 2] was 2 h. For the same compound, the half-life ([1]; 15 mg/kg/day, NRG mice plasma, 15 mg/kg/d PO qd x 5 alone, after 5th dose, read-out: T1/2 (converted)) was 1.7 h, the Vd/F [1, 2] was 21.5 L/kg and the AUC(0-t) [1, 3] was 3.73 µM·h. The CL/F [1, 3] was 102 mL/min/kg, the Cmax [1, 3] was 719 nM and the Tmax [1, 3] was 2 h. It also gave a half-life ([1]; NRG mice plasma, 15 mg/kg/d PO qd x 5 in SAV (SOR 30 mg/kg/d, VEN 150 mg/kg/d), after 5th dose, read-out: T1/2 (converted)) of 2.4 h, a Vd/F [1, 3] of 21.3 L/kg and an AUC(0-t) [1, 4] of 22.9 µM·h. It also gave a CL/F [1, 4] of 86.7 mL/min/kg, a Cmax [1, 4] of 13100 nM and a Tmax [1, 4] of 1.5 h. The half-life ([1]; NRG mice plasma, 75 mg/kg PO x 1, read-out: T1/2 (converted)) was 1.1 h, the Vd/F [1, 4] was 8.4 L/kg and the IC50 (U937) was 0.02 ± 0.005 µM.
